# Assay results published in patent EP4417602A1, “SUBSTITUTED PYRAZOLE CARBOXAMIDES, SALTS THEREOF AND THEIR USE AS HERBICIDALLY ACTIVE SUBSTANCES” (Bayer AG, priority 2023, dated 2024).
# Legend:
# ECHCG = assay: A. Herbicidal pre-emergence action on harmful plants (Tables A); type: in vivo, Echinochloa crus-galli; conditions: visual grading after ca. 3 weeks vs untreated controls, 100% = plants have died off, 0% = as control plants
# Excerpt: (§1) Seeds of mono- and dicotyledonous weed plants were sown in plastic pots (double sowings with one species of mono- and one species of dicotyledonous weed plants per pot), in sandy loam, and covered with soil. The compounds according to the invention, formulated in the form of wettable powders (WP) or as emulsifiable concentrates (EC), were applied to the surface of the covering soil as aqueous suspension or emulsion, with the addition of 0.5% of an additive, at an application rate of 6001 of water per hectare (converted). Following treatment, the pots were placed in a greenhouse and kept under optimum growth conditions for the test plants. The visual grading of the damage to the test plants was carried out after ca. 3 weeks in comparison to untreated controls (herbicidal effect in percent (%): 100% effect = plants have died off, 0% effect = as control plants). Tables A1 to A12, below, show the effects of selected compounds of the general formula (I) according to table 1 on various harmful plants and an application rate corresponding to 1280 g/ha or below obtained by the experimental procedure mentioned above. Table A1: pre-emergence activity at 1280g/ha against ABUTH in %
# MATIN = assay: as above; type: in vivo, Matricaria inodora; conditions: visual grading after ca. 3 weeks vs untreated controls, 100% = plants have died off, 0% = as control plants
# Excerpt: as §1
# SETVI = assay: as above; type: in vivo, Setaria viridis; conditions: visual grading after ca. 3 weeks vs untreated controls, 100% = plants have died off, 0% = as control plants
# Excerpt: as §1
# POAAN [1] = assay: as above; type: in vivo, Poa annua
# Excerpt: as §1
# DIGSA = assay: as above; type: in vivo, Digitaria sanguinalis
# Excerpt: as §1
# LOLRI = assay: as above; type: in vivo, Lolium rigidum; conditions: visual grading after ca. 3 weeks vs untreated controls, 100% = plants have died off, 0% = as control plants
# Excerpt: as §1
# STEME = assay: as above; type: in vivo, Stellaria media; conditions: application rate 1280 g/ha; visual grading after ca. 3 weeks vs untreated controls; 100% = plants have died off, 0% = as control plants
# Excerpt: as §1
# ALOMY = assay: as above; type: in vivo, Alopecurus myosuroides; conditions: application rate 1280 g/ha; Table A9a
# Excerpt: as §1
# POAAN [2] = assay: B. Herbicidal post-emergence action on harmful plants (Tables B); type: in vivo, Poa annua; conditions: application rate 1280 g/ha; Table B7a
# Protocol: Seeds of mono- and dicotyledonous weed plants were placed in plastic pots in sandy loam soil (doubly sown with in each case one species of mono- or dicotyledonous weed plants per pot), covered with soil and cultivated in a greenhouse under controlled growth conditions. 2 to 3 weeks after sowing, the test plants were treated at the one-leaf stage. The compounds of the invention, formulated in the form of wettable powders (WP) or as emulsion concentrates (EC), were applied onto the green parts of the plants as aqueous suspension or emulsion with addition of 0.5% additive at a water application rate of 600 liters per hectare (converted). After the test plants had been kept in the greenhouse under optimum growth conditions for about 3 weeks, the activity of the preparations was rated visually in comparison to untreated controls. For example, 100% activity = the plants have died, 0% activity = like control plants. Tables B1 to B12, below, show the effects of selected compounds of the general formula (I) according to table 1 on various harmful plants and an application rate corresponding to 1280 g/ha or below obtained by the experimental procedure mentioned above. Table B1a: post-emergence activity at 1280g/ha against ABUTH in %
# [3] = application rate 80 g/ha, Table A7c
# [4] = application rate 320 g/ha, Table A7b
# [5] = application rate 1280 g/ha, visual grading after ca. 3 weeks vs untreated controls, 100% = plants have died off, 0% = as control plants
# [6] = application rate 1280 g/ha, Table A12a
# [7] = application rate 320 g/ha, Table A12b
SMILES,pre-emergence activity against ECHCG (ECHCG; application rate 1280 g/ha) [%],pre-emergence activity against MATIN (MATIN; application rate 1280 g/ha) [%],pre-emergence activity against SETVI (SETVI; application rate 1280 g/ha) [%],pre-emergence activity against POAAN (POAAN [1]; [3]) [%],pre-emergence activity against POAAN (POAAN [1]; [4]) [%],pre-emergence activity against POAAN (POAAN [1]; [5]) [%],pre-emergence activity against DIGSA (DIGSA; [6]) [%],pre-emergence activity against ECHCG (ECHCG; application rate 320 g/ha) [%],pre-emergence activity against LOLRI (LOLRI; application rate 1280 g/ha) [%],pre-emergence activity against SETVI (SETVI; application rate 320 g/ha) [%],pre-emergence activity against STEME (STEME) [%],pre-emergence activity against SETVI (SETVI; application rate 80 g/ha) [%],pre-emergence activity against ALOMY (ALOMY) [%],pre-emergence activity against DIGSA (DIGSA; [7]) [%],post-emergence activity against POAAN (POAAN [2]) [%],pre-emergence activity against ECHCG (ECHCG; application rate 80 g/ha) [%],pre-emergence activity against LOLRI (LOLRI; application rate 320 g/ha) [%],pre-emergence activity against MATIN (MATIN; application rate 320 g/ha) [%],"pre-emergence activity against DIGSA (DIGSA; application rate 80 g/ha, Table A12c) [%]"
COCCOCCn1cc(C(=O)N2CCCC2Cc2ccccc2F)c(COC)n1 (racemic) [Example I-030],90,90,90,90,90,100,90,–,–,–,–,–,–,–,–,–,–,–,–
COCCn1cc(C(=O)N2CCCC2Cc2ccccc2F)c(COC)n1 (racemic) [Example I-032],90,–,90,–,100,100,100,90,100,90,–,–,–,–,–,–,–,–,–
COCc1c(C(=O)N2CCCC2Cc2c(F)cccc2Cl)cnn1C (racemic) [Example I-151],100,–,90,–,–,100,100,–,90,–,90,–,–,–,–,–,–,–,–
"COCc1c(C(=O)N2CCCC2Cc2cc(F)ccc2F)cnn1C (single isomer, unassigned) [Example I-188]",100,90,100,90,100,100,100,90,100,100,90,90,90,90,90,–,–,–,–
Cn1cc(C(=O)N2CCC2Cc2ccccc2F)c(COCC(F)F)n1 (racemic) [Example I-108],100,100,100,90,100,100,100,100,90,–,90,–,–,–,90,–,–,–,–
"COCc1c(C(=O)N2CCCC2Cc2cccc(F)c2F)cnn1C (single isomer, unassigned) [Example I-137]",100,90,100,100,100,100,100,90,100,–,–,–,–,100,90,90,90,90,100
COCc1nn(CC(OC)OC)cc1C(=O)N1CCCC1Cc1ccccc1F (racemic) [Example I-047],100,–,–,–,–,100,90,–,90,–,–,–,–,–,–,–,–,–,–
COCc1nn(CC#N)cc1C(=O)N1CCCC1Cc1ccccc1F (racemic) [Example I-029],90,90,100,–,–,90,100,–,–,–,–,–,–,–,–,–,–,–,–
Cn1cc(C(=O)N2CCC2Cc2ccccc2Cl)c(COCC(F)F)n1 (racemic) [Example I-109],100,100,90,–,100,100,100,100,–,–,–,–,–,90,–,–,–,–,–
